Assay results as given in a melting point compilation (Tetko et al.; mined from patent text by program, amines drawn as free bases though some values may be those of a salt).

Structure (SMILES) | melting point
CCCC[C@H](NC(=O)[C@H](CC(C)C)NC(=O)c1ccc(F)c(F)c1)C(=O)CSCc1ccco1 | 94 to 100 °C
COc1ccccc1Nc1ccc2c(c1)OCc1cc([N+](=O)[O-])ccc1C2=O | 200 °C
Cc1ccc(C(C)(C)C)c(SC2=C(O)CC(CCc3ccccc3)(c3ccc(OCCO)cc3)OC2=O)c1 (stereo unspecified) | 70 to 73 °C
Cc1nc(-c2ccc(-c3ccc(C(=O)Nc4ccc(Br)c(OCCN(C)C)c4)cc3)c(C)c2)no1 | 138 to 140 °C
CCOC(=O)CN(CC(=O)OCC)C(=O)C(CCC(=O)O)CS(=O)(=O)c1ccc2ccccc2c1 (stereo unspecified) | 108 to 111 °C
CCCN1CC(c2ccc(S(C)(=O)=O)cc2)=C(c2ccc(C)cc2)C1=O | 161 to 163 °C
C#Cc1cccc(Nc2ncnc3cc(OCCOC(C)=O)c(OCCOC(C)=O)cc23)c1 | 137 to 138 °C
CCN(CC)CCOc1ccc2cc3ccc(OCCN(CC)CC)c(CN4C(=O)c5ccccc5C4=O)c3nc2c1CN1C(=O)c2ccccc2C1=O | 242 to 244 °C
COc1cc(COc2cc(N)c(Cl)cc2C(=O)CCCCN2CCCCCC2)cc(OC)c1 | 137 to 139 °C
Cc1csc2[nH]c(=O)n(Cc3ccc(Br)cc3F)c(=O)c12 | 296 to 298 °C
COc1ccc2[nH]c3ccccc3c2c1 | 148 to 150 °C
CNC(=O)c1cc2[nH]cnc2c(Cl)c1NC(=O)c1cc(C(F)(F)F)nn1-c1ncccc1Cl | 190 to 192 °C
Cc1c(Cl)cccc1S(=O)(=O)n1c(CCCC(=O)O)cc2nc(Cl)ccc21 | 127 to 128 °C
N=C(N)c1ccc(C(=O)Nc2ccc(Nc3cc(-c4cccc5c4oc4ccccc45)ncn3)cc2)cc1 | 213 to 219 °C
O=C(O)c1ccccc1N1CCN(CC(O)COc2cccc3ccccc23)CC1 (stereo unspecified) | 215 to 218 °C
CC(C)CCCC(C)C1CCC2C3=CC=C4CC(O)CC(O)C4(C)C3CCC21C (stereo unspecified) | 155 to 158 °C
CC(C)(C)c1ccc(-c2nnc(-c3ccc(C(=O)O)cc3)o2)cc1 | 284 to 286 °C
Cc1nc2c(OCc3c(Cl)ccc(S(=O)(=O)N4CCC[C@H]4C(=O)NCCCNC(=O)c4ccc(C=NN)cc4)c3Cl)cccn2c1Br | 170 °C
CC(=O)N1C(=O)NC(=O)C12c1ccccc1N(C)C(=O)N2C (stereo unspecified) | 261 to 263 °C
CN(C)c1ccc(-c2cc(=O)c(C(=O)O)cn2-c2ccc(F)c(N)c2)cc1 | 198 to 201 °C
Cc1ccc(N(c2ccc(C)cc2)c2c(C)cc(-c3cc(C)c(N(c4ccc(C)cc4)c4ccc5ccc6cccc7ccc4c5c67)c(C)c3)cc2C)cc1 | 198 to 199 °C
CN1CC2c3cccn3Cc3ccccc3N2C(=O)C1=O (stereo unspecified) | 178 to 179 °C
COc1ccc(CS[C@@H]2C[C@@H](CN=[N+]=[N-])N(S(=O)(=O)c3ccc4ccccc4c3)C2)cc1 | 143 °C

Structure (SMILES) | melting point
CCc1noc(-c2cn(-c3cc(Cl)ccc3OC)cn2)n1 | 139 to 140 °C
CC(=O)c1ccc(C2(O)CC(C)(C)CC(C)(C)C2)cc1 | 135 °C
CCOP(=O)(Cc1ccc(NC(=O)Cc2cnoc2-c2ccccc2)cc1)OCC | 132 to 133 °C
Cc1cccc(Nc2ccccc2-c2n[nH]c(=O)o2)c1C | 239 to 241 °C
Cc1c(F)c(F)c(C(O)C#N)c(F)c1F (stereo unspecified) | 124 °C
Cc1ccc(Cn2c(=O)cc(C(C)C(=O)Oc3ccccc3)c3cc(C)ccc32)cc1 (stereo unspecified) | 111 to 113 °C
COc1ccc(C2CC(c3cccc(OC)c3)=NN2c2ccc(C(=O)O)cc2)cc1 (stereo unspecified) | 142 °C
Nc1ncc2ncn([C@H]3C=C[C@@H](O)C3)c2n1 (racemic) | 144 to 147 °C
COC(=O)c1ccc(OCCCC2Cc3c(c(OC)c(OC)c(OC)c3OC)C2)cc1 | 70 to 72 °C
Cn1nc(C(F)(F)F)cc1O | 170 to 173 °C
O=C(O)c1cccc(-c2nc(-c3cccc(C(F)(F)F)c3)cs2)c1 | 229 to 230 °C
O=C(c1ccc(F)cc1)N(CCCCn1ccnc1)C1=Nc2cccc3cccc1c23 | 109 to 110 °C
C/C(=N\OC(=O)c1ccc(CN2CCOCC2)cc1)[C@H]1CC[C@H]2[C@@H]3CCC4=CC(=O)CC[C@]4(C)[C@H]3CC[C@]12C | 166 to 168 °C
CC(=O)Nc1cccc2c1C(=O)c1c-2n[nH]c1C(C)C | > 250 °C
COc1cn(-c2ccc(-n3nccc3O)cc2F)nc(-c2ccnn2-c2ccccc2)c1=O | 221 to 229 °C
Cc1oc(-c2ccccc2)nc1COc1nn(Cc2ccc(Oc3ccccc3)cc2)cc1CO | 103 to 104 °C
COc1ccc(C(=O)n2c(C)c(Cc3cc(=O)n(-c4cccc(C(F)(F)F)c4)[nH]3)c3cc(OC)ccc32)cc1 | 91 to 94 °C
Clc1nccc(-c2ccc(Cl)c(Cl)c2)n1 | 126 to 127 °C
COC(=O)C1C(C(OC(=S)Oc2ccc(C)cc2)C(C)C)C1(C)C (stereo unspecified) | 92 to 93 °C
CCNC(=O)C1CN(C(c2ccccc2)c2ccccc2)C1 | 91 to 93 °C
NC(=O)CNC(=O)c1ccc(-c2cccc3cc(COc4cccc(C(F)(F)F)c4)sc23)cc1 | 164 to 165 °C
CC(C)(C)OC(=O)N=C(NC(=O)OC(C)(C)C)N1CCC(n2ccc3ccccc32)CC1 | 115 to 118 °C
Oc1ccc(-c2nc(-c3cccs3)c[nH]2)cc1Br | 125 to 130 °C
